According to US8658686B2, “Pyrazole compounds having therapeutic effect on multiple myeloma” (Nissan Chemical Industries, Ltd., priority 2010, dated 2014):
Converted amounts (≈) assume the structure as drawn. Read-outs that look alike come from different tables or passages of the source.

What was measured:
[1] = tested on: RPMI8226 cells; experiment: Cell proliferation assay (WST assay, Cell Counting Kit-8), myeloma cell strain RPMI8226; type: cell-based; details: 4 days of incubation, concentration yielding 50% inhibition of cell proliferation
Method: The CO2 concentration (%) in a CO2 incubator is expressed by the ratio of CO2 in the atmosphere in vol %.
Myeloma cell strain RPMI8226 (DS Pharma Biomedical Co., Ltd.) was incubated in liquid culture in a CO2 incubator (5% CO2) in RPMI1640 medium containing 10% (v/v) fetal calf serum. The resulting cells were suspended in RPMI640 medium(GIBCO) containing 10% (v/v) fetal calf serum and plated in 96-well flat-bottomed microplates (Corning Incorporated) in 100 μl/mL ([…]) per well. Furtheremore, each of the compounds prepared in Synthetic Examples was dissolved in dimethylsulfoxide and added at 0.1% (v/v) to final concentrations of 0.1 to 10 μg/mL. As the negative control, dimethyl sulfoxide was added at 0.1% (v/v).
After 4 days of incubation at 37° C. in liquid culture in a CO2 incubator (5% CO2), the viable cells were counted by the WST assay. A 10-μl aliquot of Cell Counting Kit-8 reagent solution (Dojindo Molecular Technologies, Inc.) was added to each well and incubated in a CO2 incubator (5% CO2) for 4 hours for color reaction, and light absorbance was measured at 450 nm by using a microplate reader. As the cell growth inhibitory activities in the presence of the test compounds relative to that in the absence of them (negative control), the concentrations (IC50) yielding 50% inhibition of cell proliferation were calculated.

[2] = Homo sapiens, RPMI-8226, 96 h, read-out: IC50

Row | Structure (SMILES) | IC50 [1, 2] | IC50 [1] | melting point
1 | COc1c(C)c(-c2ccccc2)nn1C(C)(C)c1ccccc1 [Compound No. 3-14, 5-methoxy-4-methyl-3-phenyl-1-(2-phenylpropan-2-yl)-1H-pyrazole] | 7.9 µg/mL (≈ 25.8 µM) | – | –
2 | CC(C)(Cc1ccccc1)N1N=C(c2ccccc2)CC1=O [Compound No. 3-16, 1-(2-methyl-1-phenylpropan-2-yl)-3-phenyl-1H-pyrazol-5(4H)-one] | 3.5 µg/mL (≈ 12 µM) | – | –
3 | COC(=O)CC1=NN(C(C)(C)c2ccccc2)C(=O)C1 [Compound No. 4-01, methyl 2-(5-oxo-1-(2-phenylpropan-2-yl)-4,5-dihydro-1H-pyrazol-3-yl)acetate] | 11.1 µg/mL (≈ 40.5 µM) | – | –
4 | CC(C)C1=NN(C(C)(C)Cc2ccccc2)C(=O)C1Br (stereo not shown) [Compound No. 3-47, 4-bromo-3-isopropyl-1-(2-methyl-1-phenylpropan-2-yl)-1H-pyrazol-5(4H)-one] | 3.3 µg/mL (≈ 9.78 µM) | – | –
5 | COc1cc(-c2ccccc2)nn1C(C)(C)c1ccccc1 [Compound No. 3-13, 5-methoxy-3-phenyl-1-(2-phenylpropan-2-yl)-1H-pyrazole] | 5.4 µg/mL (≈ 18.5 µM) | – | –
6 | CC(C)C1=NN(C(C)(C)Cc2ccc(Br)cc2)C(=O)C1 [Compound No. 3-12, 1-(1-(4-bromophenyl)-2-methylpropan-2-yl)-3-isopropyl-1H-pyrazol-5(4H)-one] | 5.4 µg/mL (≈ 16 µM) | – | –
7 | CCOC(=O)c1c(C(C)C)nn(C(C)(C)c2ccccc2)c1O [Compound No. 4-27, ethyl 5-hydroxy-3-isopropyl-1-(2-phenylpropan-2-yl)-1H-pyrazole-4-carboxylate] | 5.5 µg/mL (≈ 17.4 µM) | – | –

Continued, values first:

Row | IC50 [1, 2] | IC50 [1] | melting point | Structure (SMILES)
8 | 3.2 µg/mL (≈ 8.83 µM) | – | – | CC(C)c1nn(C(C)(C)Cc2ccccc2)c(O)c1C(=O)c1ccccc1 [Compound No. 4-71, (5-hydroxy-3-isopropyl-1-(2-methyl-1-phenylpropan-2-yl)-1H-pyrazol-4-yl)(phenyl)methanone]
9 | 8.8 µg/mL (≈ 20.3 µM) | 5.3 µg/mL (≈ 12.3 µM) | – | CCCCCCc1ccc(-c2c(C(C)C)nn(C(C)(C)Cc3ccc(C)cc3)c2O)cc1 [Compound No. 3-07, 4-(4-hexylphenyl)-3-isopropyl-1-(2-methyl-1-p-tolylpropan-2-yl)-1H-pyrazol-5-ol]
10 | 5.5 µg/mL (≈ 14.1 µM) | – | 149 to 151 °C | CCCCCCc1ccc(-c2cnn(C(C)(C)Cc3ccc(C)cc3)c2O)cc1 [Compound No. 4-90, 4-(4-Hexylphenyl)-1-(2-methyl-1-(p-tolyl)propan-2-yl)-1H-pyrazol-5-ol]
11 | 3.3 µg/mL (≈ 7.94 µM) | – | 140 to 142 °C | CCCCCCc1ccc(-c2c(C#N)nn(C(C)(C)Cc3ccc(C)cc3)c2O)cc1 [Compound No. 4-86, 4-(4-Hexylphenyl)-5-hydroxy-1-(2-methyl-1-(p-tolyl)propan-2-yl)-1H-pyrazole-3-carbonitrile]
12 | 4.7 µg/mL (≈ 14.3 µM) | – | – | CON=C(C)c1c(C(C)C)nn(C(C)(C)Cc2ccccc2)c1O [Compound No. 4-89, 1-(5-Hydroxy-3-isopropyl-1-(2-methyl-1-phenylpropan-2-yl)-1H-pyrazol-4-yl)ethanone O-methyl oxime]
13 | 6.3 µg/mL (≈ 16.1 µM) | – | – | COC(=O)c1ccc(-c2c(C(C)C)nn(C(C)(C)Cc3ccccc3)c2O)cc1 [Compound No. 4-23, methyl 4-(5-hydroxy-3-isopropyl-1-(2-methyl-1-phenylpropan-2-yl)-1H-pyrazol-4-yl)benzoate]
